# Source: PubChem BioAssay (NCI)
# Values joined by “and” are separate entries in the source; they are usually repeats but may differ in a detail not shown here. Identical values can stand only once.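 Protocol summary: plate cells (96-well), add compound at 5 concentrations, incubate 48 h, interpolate endpoints linearly. GI50 is the concentration that inhibits growth by half. TGI: concentration producing complete growth inhibition.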
# Legend:
# Assay in all cases: NCI tumour cell line growth inhibition, 48 h
# HOP-62 NSCLC = system: HOP-62 NSCLC
# IGROV1 ovarian = system: IGROV1 ovarian
# MDA-MB-231 breast = system: MDA-MB-231 breast
# PC-3 prostate = system: PC-3 prostate
# SF-539 CNS = system: SF-539 CNS
# UACC-257 melanoma = system: UACC-257 melanoma
# SF-295 CNS = system: SF-295 CNS
# NCI-H226 lung = system: NCI-H226 lung
# SR leukemia = system: SR leukemia
# SNB-19 CNS = system: SNB-19 CNS
SMILES,TGI (HOP-62 NSCLC),TGI (IGROV1 ovarian) [µM],TGI (MDA-MB-231 breast),TGI (PC-3 prostate),TGI (SF-539 CNS),TGI (UACC-257 melanoma) [µM],TGI (SF-295 CNS),TGI (NCI-H226 lung),TGI (SR leukemia) [µM],TGI (SNB-19 CNS),GI50 (NCI-H226 lung) [µM],GI50 (UACC-257 melanoma),GI50 (SF-295 CNS) [µM]
CCC1(O)CC(OC2CC(N(C)C)C(OC3CC(O)C(OC4CCC(=O)C(C)O4)C(C)O3)C(C)O2)c2c(O)c3c(c(O)c2C1C(=O)OC)C(=O)c1cccc(O)c1C3=O (configuration not stated),0.138 µM and 0.119 µM,0.0281,0.28 µM and 0.229 µM,0.252 µM and 0.132 µM,0.127 µM and 0.0653 µM,0.0915,0.121 µM and 0.33 µM,,,,,,
N#C/C(=C\c1ccccc1Br)C(=O)c1ccccc1,> 100 µM,,,,> 100 µM,> 100,> 87.5 µM,> 78.2 µM,> 83.8,> 87.3 µM,,,
CCCCCCCCCCSCC(CO)NC(=O)/C=C/c1c(C)[nH]c(=O)[nH]c1=O (configuration not stated),> 31.1 µM and 31.2 µM,> 50,,,> 36.5 µM,> 50,> 50 µM,> 50 µM and 12.4 µM,,13.7 µM and 12.4 µM,2.18,1.77 µM and 3.82 µM,14.6
COc1cc2c(c(OC)c1OC)-c1ccc(SC)cc1C(=O)CC2,,> 100,,> 100 µM,< 0.01 µM,,> 100 µM,,> 100,> 100 µM,,,
CC(=O)CC(=O)/C=C/c1cccs1,> 100 µM,> 100,,,> 100 µM,> 100,> 100 µM,> 100 µM,> 100,> 100 µM,,,
CC(=O)O[C@H]1CC[C@H]2[C@@H]3CCC(C(C)=O)[C@H](C(=O)O)[C@H]3CC[C@]12C (some centres not stated),> 100 µM,> 100,> 100 µM,> 100 µM,> 100 µM,> 100,> 100 µM,,> 100,> 100 µM,,,
C#CCOC(=O)C(N)CCSC (configuration not stated),> 100 µM,> 100,> 100 µM,> 100 µM,,> 100,> 100 µM,> 100 µM,> 100,,,,
CC1(C)C2CCC(N)(C2)C1O (configuration not stated),> 100 µM,> 100,,> 100 µM,,> 100,> 100 µM,> 100 µM,> 100,> 100 µM,,,
CC1CN=C(c2ccc(COc3ccc(C4=NCC(C)N4)cc3)cc2)N1 (configuration not stated),> 100 µM,> 100,> 100 µM,> 100 µM,> 100 µM,68.3,> 100 µM,,,> 100 µM,,,
Cc1ccc2c(=O)c(-c3n[nH]c(=S)s3)c[nH]c2n1,> 100 µM,> 100,> 100 µM,> 100 µM,,> 100,> 100 µM,> 100 µM,,> 100 µM,,,
CN(CCO)/N=N/c1[nH]ncc1C(N)=O,,> 100,,,> 100 µM,> 100,> 100 µM,> 100 µM,,> 100 µM,,,
CN1B(c2ccccc2)N(C)C(=O)N(C)C1=O,,> 100,,> 100 µM,> 100 µM,> 100,> 100 µM,> 100 µM,,> 100 µM,,,
COc1ccccc1N=C1SCCN1C(=S)Nc1ccc(S(=O)(=O)/N=C/N(C)C)cc1,> 100 µM,,> 100 µM,> 100 µM,> 100 µM,> 100,> 100 µM,> 100 µM,,> 100 µM,,,
Cc1cc(C)c(N=Nc2c(O)c(S(=O)(=O)O)cc3cc(S(=O)(=O)O)ccc23)cc1C,> 100 µM,> 100,> 100 µM,> 100 µM,,> 100,> 100 µM,> 100 µM,,> 100 µM,,,
O=[N+]([O-])c1cc(Cl)ccc1S(=O)(=O)N1CCCc2cc(Cl)ccc21,> 100 µM,> 100,> 100 µM,> 100 µM,> 100 µM,83.7,> 100 µM,> 100 µM,,> 100 µM,,,
CC1=CC(=O)/C(=C/n2c(=S)[nH]c3ccccc32)C(=O)O1,> 100 µM,> 100,> 100 µM,> 100 µM,> 100 µM,> 100,> 100 µM,> 100 µM,,> 100 µM,,,
O=C1C[C@H](c2ccc(O)c(O)c2)Oc2cc(O)cc(O)c21,> 100 µM,> 100,,,> 100 µM,> 100,> 100 µM,> 100 µM,> 100,> 100 µM,,,
N=C(c1cccs1)C1(N2CCCCC2)CCCCC1,47.8 µM,39.6,31 µM,81.8 µM,,31.8,39.7 µM,,37.1,34.8 µM,,,
COc1ccc(C2C(Cl)C(=O)N2NC(=O)Cc2ccccc2)cc1OC (configuration not stated),> 100 µM,> 100,,,,> 100,> 100 µM,> 100 µM,> 100,> 100 µM,,,
CSC1=C(C(=O)Nc2ccccc2)C(N)=NC1=O,,,> 100 µM,> 100 µM,> 100 µM,> 100,,> 100 µM,> 100,> 100 µM,,,
c1ccc(C2[C@@H]3CCCc4ccccc4C3=NN2c2ccccc2)cc1 (some centres not stated),> 100 µM,> 100,,,,> 100,> 100 µM,> 100 µM,> 100,> 100 µM,,,
CCN(CC)CCNc1ccc2ncn3c4cc(=O)ccc4c(O)c1c23,17.9 µM,24.3,,,15.1 µM,17.8,10.7 µM,11.4 µM,9.75,32 µM,,,
COc1ccc(N2C(=O)C3CC4=CC(=O)C[C@H]4[C@H]32)cc1 (some centres not stated),> 100 µM,,> 100 µM,> 100 µM,,> 100,> 100 µM,> 100 µM,> 100,> 100 µM,,,
Cc1sc2nc3n(c(=O)c2c1C)N=C(c1ccc([N+](=O)[O-])cc1)CS3,> 100 µM,,> 100 µM,> 100 µM,> 100 µM,> 100,> 100 µM,> 100 µM,> 100,,,,
